Results: US10413552B2, “Method of treating medulloblastoma” (THE HOSPITAL FOR SICK CHILDREN, priority 2015, dated 2019)

Columns and labels:
[1] = system: D425 and D458 medulloblastoma cell lines; assay: MTS cell proliferation assay in Group 3 medulloblastoma cell lines; format: cell-based; settings: 48 hours treatment
Protocol: (§1) FIG. 1 illustrates the cytotoxic effect of piperlongumine, alsterpaullone, rottlerin and flunarizine in Group 3 medulloblastoma cell lines. Established medulloblastoma cell lines (D425 and D458) and a fetal neural stem cell line (hf5281) were treated with various concentrations of (a) piperlongumine, (b) alsterpaullone, (c) rottlerin and (d) flunarizine for 48 hours. Cell viability was measured by MTS assay. Data represent mean of triplicates±SEM.
(§2) D425 and D458 cells were grown as suspension cultures and seeded in 96-well microplates at 10,000 cells per well. Fetal normal human brain cells (hf5281) were grown as an adherent culture and seeded in 96-well microplates at 4,000 and 5,000 cells per well. Cells were treated for 48 h with different concentrations of Piperlongumine (PL; INDOFINE Chemical Company), alsterpaullone (ALP; A, G. Scientific), rottlerin (RTL; A. G. Scientific) and flunarizine (FZ; Sigma) or DMSO (control). Cell viability was determined by MTS proliferation assay (3-(4,5-dimethylthiazol-2-yl)-5-(3-carboxymethoxyphenyl)-2-(4-sulfophenyl)-2H-tetrazolium) and the absorbance was measured at 490 nm (CellTiter 96 Aqueous One Solution Reagent; Promega). Three independent experiments were performed with 16 repeats per treatment condition.

[2] = system: hf5281 fetal normal human brain cells; assay: MTS cell proliferation assay in fetal normal human brain cells; format: cell-based; settings: hf5281, up to the highest concentration tested of 10 μM
Protocol: as §1, §2

[3] = system: D458 cerebellar xenografts; assay: D458 intracranial medulloblastoma xenograft; format: in vivo, athymic nude mice; settings: for medulloblastoma growth (bioluminescence imaging, H&E): D458-luciferase xenograft, vs DMSO-treated controls; for medulloblastoma growth (bioluminescence imaging, H&E) / survival: s.c. for 2 weeks; for survival / survival difference, log-rank test p: D458 xenograft; for survival: Kaplan-Meier; for survival difference, log-rank test p: vs vehicle control
Protocol: (§3) Medulloblastoma intracranial xenografts were established in 5-6 week old athymic nude mice (Charles River Laboratories). Medulloblastoma cells (250,000 D425 and D458 cells) were implanted in the right cerebellum of mice. Six days after cell inoculation, animals were randomized into treatment cohorts, which included subcutaneous injections with vehicle control (10% DMSO), PL (50 mg/kg, daily for 2 weeks), ALP (30 mg/kg, daily for 2 weeks), RTL (20 mg/kg, every other day for 2 weeks) or FZ (50 mg/Kg, daily for 2 weeks).
In animals bearing D458-GFP/Luciferase xenografts, bioluminescence imaging was performed at 6 days after intracranial injection. Mice with a detectable signal were included in the study and tumor growth was monitored at one-week intervals using the IVIS Spectrum Optical In-vivo Imaging System (Caliper Life Sciences).
(§4) Animals with progressive neurological signs or weight loss greater than 20% were euthanized and the brains harvested and fixed in 10% formalin.
(§5) The Kaplan-Meier estimate and a log-rank test were used to generate survival curves. Experiments were performed in triplicate and results were expressed as mean±SEM. Statistical analysis was performed using GraphPad Prism 5 Software.
The efficacy of PL, ALP, RTL and FZ in established medulloblastoma xenografts representative of Group 3 medulloblastomas was then determined. D458 cells expressing luciferase were implanted in the right cerebellum of nude mice and bioluminescence imaging was performed at 6 days post inoculation. Animals with a detectable signal were treated by subcutaneous injection with PL (50 mg/kg, daily for 2 weeks), ALP (30 mg/kg, daily for 2 weeks), RTL (20 mg/kg, every other day for 2 weeks), FZ (50 mg/Kg, daily for 2 weeks) or vehicle control (10% DMSO).

[4] = system: D425 cerebellar xenografts; assay: D425 intracranial medulloblastoma xenograft; format: in vivo, athymic nude mice; settings: for survival: Kaplan-Meier; for medulloblastoma growth (H&E): vs control group
Protocol: as §3, §4, §5

[5] = system: D425 and D458 medulloblastoma cells; assay: Western blot, induction of apoptosis; format: cell-based; settings: 48 h treatment
Protocol: (§6) Cell lysates were prepared by adding RIPA buffer (Sigma) containing protease inhibitors (F. Hoffman-La Roche AG), 0.2 M sodium orthovanadate, 0.2 M sodium pyrophosphate and 0.2 M sodium fluoride. The Pierce BCA Protein Assay Kit (Thermo Scientific) was used to determine protein concentration. […] The following antibodies were used: PARP (1:1,000; Cell Signaling), AKT (1:1,000; Cell Signaling), phospho-AKT (1:2,000; Ser473, Cell Signaling), α-tubulin (1:1,000; Cell Signaling), anti-mouse IgG conjugated to horseradish peroxidase (1:5,000; Amersham Biosciences) and anti-rabbit IgG conjugated to horseradish peroxidase (1:5,000; Cell Signaling).
(§7) To determine the mechanisms by which PL and ALP exert their antitumor effect, D425 and D458 medulloblastoma cells were treated with both drugs for 48 h.

AKT pathway = assay: Western blot, AKT pathway inhibition; format: cell-based; settings: 48 h treatment, D458 and D425 cells
Protocol: as §6, §7

[6] = system: D425 and D458 medulloblastoma cells; assay: Gene expression profiling and Gene Set Enrichment Analysis (GSEA) after treatment; format: cell-based, human
Protocol: D425 and D458 medulloblastoma cells were treated with 5 μM of PL, 5 μM of ALP or DMSO (control) for 48 h. RNA isolation was performed using the RNeasy Mini Kit (Qiagen) and gene expression data were generated using the Human PrimeView Arrays. Gene Set Enrichment Analysis (GSEA) was performed using gene sets from the National Cancer Institute (NCI), Gene Ontology (GO), Kyoto Encyclopedia of Genes and Genomes (KEGG), Protein Families (PFAM) and Biocarta pathway databases. Significant gene sets were identified (FDR<0.05; p<0.01) and visualized in Cytoscape and Enrichment Map software.
To identify downstream transcriptional events induced by ALP, genomic profiling of Group 3 medulloblastoma cell lines (D425 and D458) was conducted after treatment for 48 hours. […] Gene Set Enrichment Analysis (GSEA) was performed with gene sets compiled from the National Cancer Institute (NCI), Gene Ontology (GO), Kyoto Encyclopedia of Genes and Genomes (KEGG), Protein Families (PFAM) and Biocarta pathway databases. To visualize significant gene sets (FDR<0.05; p<0.01) as interaction networks, Cytoscape and Enrichment Map were used.

[7] = D425 and D458, 5 μM, 48 h vs DMSO, rank 1
[8] = D425 and D458, 5 μM, 48 h vs DMSO, rank 2
[9] = D425 and D458, 5 μM, 48 h vs DMSO, rank 3
[10] = D425 and D458, 5 μM, 48 h vs DMSO, rank 4
[11] = D425 and D458, 5 μM, 48 h vs DMSO, rank 5
[12] = D425 and D458, 5 μM, 48 h vs DMSO, rank 6
[13] = D425 and D458, 5 μM, 48 h vs DMSO, rank 7
[14] = D425 and D458, 5 μM, 48 h vs DMSO, rank 8
[15] = D425 and D458, 5 μM, 48 h vs DMSO, rank 9
[16] = D425 and D458, 5 μM, 48 h vs DMSO, rank 10

## O=C1Cc2c([nH]c3ccc([N+](=O)[O-])cc23)-c2ccccc2N1 [alsterpaullone, 9-nitro-7,12-dihydroindolo-[3,2-d][1]benzazepin-6(5)-one]
[1]
  concentration at which cell proliferation was reduced: 1 µM
[2]
  reduction in cell proliferation: little reduction in cell proliferation
[3]
  medulloblastoma growth (bioluminescence imaging, H&E): Marked reduction in medulloblastoma growth
  survival: significant increase in survival
  survival difference, log-rank test p: 0.0043
[4]
  survival: significantly increase survival
  medulloblastoma growth (H&E): reduce medulloblastoma growth
[5]
  apoptosis (Western blot): induced apoptosis
AKT pathway
  AKT pathway activation (Western blot): potently inhibited AKT pathway activation at lower concentrations than PL
[6]; [7]
  GSEA enriched pathway Cell Cycle Mitotic: Regulation: Down-Regulated
  GSEA enriched pathway Systemic Lupus Erythematosus: Regulation: Up-Regulated
[6]; [8]
  GSEA enriched pathway Mitotic M M G1 Phases: Regulation: Down-Regulated
  GSEA enriched pathway RNA Pol 1 Promoter Opening: Regulation: Up-Regulated
[6]; [9]
  GSEA enriched pathway Amyloids: Regulation: Up-Regulated
  GSEA enriched pathway Mitotic Prometaphase: Regulation: Down-Regulated
[6]; [10]
  GSEA enriched pathway DNA Replication: Regulation: Down-Regulated
  GSEA enriched pathway Packaging of Telomere Ends: Regulation: Up-Regulated
[6]; [11]
  GSEA enriched pathway G2 M Checkpoints: Regulation: Down-Regulated
  GSEA enriched pathway Olfactory Signaling Pathway: Regulation: Up-Regulated
[6]; [12]
  GSEA enriched pathway Autoimmune Thyroid Disease: Regulation: Up-Regulated
  GSEA enriched pathway Metabolism of Non Coding RNA: Regulation: Down-Regulated
[6]; [13]
  GSEA enriched pathway Activation of the Pre Replicative Complex: Regulation: Down-Regulated
  GSEA enriched pathway Asthma: Regulation: Up-Regulated
[6]; [14]
  GSEA enriched pathway Cell Cycle: Regulation: Down-Regulated
  GSEA enriched pathway Class A1 Rhodopsin Like Receptors: Regulation: Up-Regulated
[6]; [15]
  GSEA enriched pathway Activation of ATR in Response to Replication Stress: Regulation: Down-Regulated
  GSEA enriched pathway Immunoregulatory Interactions Between a lymphoid and a non lymphoid Cell: Regulation: Up-Regulated
[6]; [16]
  GSEA enriched pathway Cell Cycle Checkpoints: Regulation: Down-Regulated
  GSEA enriched pathway RNA Pol 1 Transcription: Regulation: Up-Regulated
[6]; D425 and D458, 48 hours, MYC, CDK7, RB1, CDK6, CCNB1, CDK5RAP2, CDK1, CDKN2C
  gene expression change vs DMSO-treated cells: down-regulation of genes involved in cell cycle

## Fc1ccc(C(c2ccc(F)cc2)N2CCN(C/C=C/c3ccccc3)CC2)cc1 [flunarizine]
[3]
  survival: not able to prolong survival

## COc1cc(/C=C/C(=O)N2CCC=CC2=O)cc(OC)c1OC [piperlongumine]
[1]
  concentration at which cell proliferation was reduced: 5 µM
[2]
  reduction in cell proliferation: little reduction in cell proliferation
[3]
  medulloblastoma growth (bioluminescence imaging, H&E): Marked reduction in medulloblastoma growth
  survival: significant increase in survival
  survival difference, log-rank test p: 0.0011
[4]
  survival: significantly increase survival
  medulloblastoma growth (H&E): reduce medulloblastoma growth
[5]
  apoptosis (Western blot): induction of apoptosis
AKT pathway
  AKT pathway activation (Western blot): AKT pathway inhibition

## CC(=O)c1c(O)c(C)c(O)c(Cc2c(O)c3c(c(C(=O)/C=C/c4ccccc4)c2O)OC(C)(C)C=C3)c1O [rottlerin]
[1]
  concentration at which cell proliferation was reduced: 5 µM
[2]
  reduction in cell proliferation: little reduction in cell proliferation
[3]
  medulloblastoma growth (bioluminescence imaging, H&E): Marked reduction in medulloblastoma growth
  survival: significant increase in survival
  survival difference, log-rank test p: 0.0262
